Measured values published in PMC5295395, “Inhibition of PlexA1-mediated brain tumor growth and tumor-associated angiogenesis using a transmembrane domain targeting peptide” (Oncotarget, 2016).

Legend:
[1] = system: U118MG-Luc glioma tumors in nude mice; experiment: heterotopic (subcutaneous) U118MG-Luc xenograft, tumor growth; type: in vivo, human cells in mouse
Procedure: To address the biological consequences of MTP-PlexA1-mediated inhibition of PlexA1 we used the U118MG-Luc glioma cell line genetically engineered to express the luciferase reporter gene. […] Cells were then grafted subcutaneously and tumor growth was monitored every 5 days for a total period of 20 days. […] The quantitative analysis of the cumulated luminescent signal acquired all along the protocol confirmed the strong reduction of tumor development translating into a marked 75% reduction of the averaged luminescent signal at the end point (Figure 6C). […] However, responses were strong for 8 out of 10 mice with some responses close to 100%, all of them being at least Partial Response (PR) (Figure 6D). In order to clarify the mechanism by which MTP-PlexA1 is exerting tumor growth inhibition we collected tumors and analyzed them histologically.
(B) Representative photographs illustrating the kinetic of tumor growth over 20 days in the two experimental groups. (C) Cumulated growth curves of the tumors (UA: Arbitrary Unit). (D) Waterfall plot of best response representing the percent change in tumor volume of individual treated animals (grey bars, n = 10) compared to the average tumor volume increased determined in the control group (dark bars, n = 10). (E) Proximity ligation assay on tumor slices showing that MTP-PlexA1 (10^−7 M) decreases the number of PlexA1-NRP1 interactions in U118MG cells. (F) Representative microphotographs and related quantification of PH3 positive cells in tumor slices (G) Representative microphotographs and related quantification of CD31 positive regions in tumor slices (% CD31 per μm² of tumors).
Experiments were performed according to the Guide for Care and Use of Laboratory Animals (E67-6-482-21) and the European Directive with approval of the regional ethical committee (Reference AL/55/62/02/13). Heterotopic grafts were produced by injecting […] in the flank of pathogen-free NMRI nude mice (Janvier, Le Genest Saint Isle, France). Intraperitoneal administration of vehicle (LDS 72 μM) or MTP-PlexA1 treatment (10–7 M) were done every days during 20 days when the tumors reached a minimal volume of 100 mm3. For the experiment conducted with cancer stem cell line NCH644mCherry, we performed bilateral grafting of 10^6 cells on each flank of 20 nude mice without treatment or pre-incubated for 1 hour with MTP-PlexA1 at 10–7 M. After 5 days, the fluorescence emission of developing tumors was recorded using the NightOwl system (Berthold) using appropriate excitation and emission filters (580 nm/620 nm respectively).

[2] = system: NCH644 cells; experiment: sphere forming assay, NCH644 glioma stem cells; type: cell-based, human; settings: NCH644, 10^−9 M
Procedure: Mounting evidence supports a crucial role of cancer stem cells in the initiation or relapse of tumors. This is particularly the case for gliomas. Thus, we decided to evaluate to what extent MTP-PlexA1 would affect glioma stem cell (GSC) growth. To this end, we used the NCH644 human cell line derived from a patient biopsy. […] We next performed a sphere forming assay in which cells were plated into 96-well plates at a low density (30 cells per well) to monitor production of clones from individual cells growing as non-adherent gliomaspheres. A minimum of 30 cells per well was required to allow sufficient sphere production (composed of at least 8 cells) in a time frame compatible with drug testing. Visual control of sphere formation on a daily basis confirmed that cellular edifices were arising from single cells and not due to cell clumping. […] To address whether this inhibitory effect is sufficient to impede tumor development in vivo we performed a xenograft experiment. […]
Cells were stained with an orange fluorescent dye (CMRA orange, Molecular Probe) to facilitate monitoring of individual cell and sphere counting. […] The sphere forming rate was calculated by dividing the number of sphere at day 4 per the real number of cells at day one in a given well.

[3] = system: U373MG tumors in nude mice; experiment: heterotopic U373MG xenograft in nude mice; type: in vivo, human cells in mouse
Procedure: Supplementary Figure S6: The anti-tumor effect of MTP-PlxA1 was verified in U373MG human GBM line. […]
(Stable Disease) and 62.5% PR (Partial Response).

[4] = subcutaneous U118MG-Luc, every day, 1 μg/kg, n = 10
[5] = U373MG, waterfall best response, RECIST criteria

For “TLPAIVGIGGGGGLLLLVIVAVLIAYKRK [MTP-PlexA1, synthetic transmembrane peptide mimicking the TMD of PlexA1]”, the “mice not responding to treatment (waterfall best response)” value [1, 4] was 2 out of 10, the “mice with strong response, at least Partial Response (PR)” value [1, 4] was 8 out of 10 and the “reduction of averaged luminescent signal at the end point” value ([1]; subcutaneous U118MG-Luc, i.p. every day, 1 μg/kg, 20 days) was 75%. For the same sequence, the “best response, some animals” value ([1]; waterfall graph, percent change in tumor volume, individual animals) was about 100%, the “decrease of sphere forming ability” value ([2]; 4 days, 30 cells per well, p = 0.0015, Student T test) was 33.3% and the “sphere formation relative to vehicle” value ([2]; vehicle = 100% +/− 9.7%) was 66.7% +/− 5.2. The “change of endpoint tumor weight” value ([3]; U373MG flank graft, daily i.p., 10–7 M, p = 0.0044) was −44%, the “mice responding to the treatment” value [3, 5] was 100% and the “mice with PR (Partial Response)” value [3, 5] was 62.5%. The “mice with SD (Stable Disease)” value [3, 5] was 37.5%.
